Assay results taken from ChEMBL document CHEMBL1141036, “2-Alkyl-3-(1,2,3,6-tetrahydropyridin-4-yl)-1H-indoles as novel 5-HT6 receptor agonists” (Bioorg Med Chem Lett, 2005).

Legend:
[1] = target: T1, 5-hydroxytryptamine receptor 6 (Homo sapiens, UniProt P50406); assay: Displacement of [3H]LSD binding to cloned human 5-hydroxytryptamine 6 receptor expressed in HEK cells; format: cell-based, HEK293
[2] = target: T2, 5-hydroxytryptamine receptor 1A (Rattus norvegicus, UniProt P19327); assay: Inhibitory activity against 5-hydroxytryptamine 1A receptor in rat
T2 sequence (P19327 whole entry): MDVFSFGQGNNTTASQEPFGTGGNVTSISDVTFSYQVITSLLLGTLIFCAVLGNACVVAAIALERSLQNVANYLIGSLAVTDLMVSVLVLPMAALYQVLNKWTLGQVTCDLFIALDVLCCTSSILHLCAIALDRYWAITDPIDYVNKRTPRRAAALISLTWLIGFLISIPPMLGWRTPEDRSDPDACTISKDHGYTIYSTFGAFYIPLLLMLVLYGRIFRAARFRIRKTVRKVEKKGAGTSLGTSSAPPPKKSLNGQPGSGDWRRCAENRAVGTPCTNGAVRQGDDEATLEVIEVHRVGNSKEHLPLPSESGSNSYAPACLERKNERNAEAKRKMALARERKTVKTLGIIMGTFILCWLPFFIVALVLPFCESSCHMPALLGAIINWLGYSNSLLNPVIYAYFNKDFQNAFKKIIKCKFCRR

[3] = target: 5-hydroxytryptamine receptor 1B (Rattus norvegicus, UniProt P28564); assay: Inhibitory activity against 5-hydroxytryptamine 1B receptor in rat
[4] = target: 5-hydroxytryptamine receptor 7 (Homo sapiens, UniProt P34969); assay: Inhibitory activity against 5-hydroxytryptamine 7 receptor in human
[5] = target: 5-hydroxytryptamine receptor 2A (Homo sapiens, UniProt P28223); assay: Inhibitory activity against 5-hydroxytryptamine 2A receptor in human
[6] = target: T3, 5-hydroxytryptamine receptor 2C (Homo sapiens, UniProt P28335); assay: Inhibitory activity against 5-hydroxytryptamine 2C receptor in human
T3 sequence (P28335 whole entry): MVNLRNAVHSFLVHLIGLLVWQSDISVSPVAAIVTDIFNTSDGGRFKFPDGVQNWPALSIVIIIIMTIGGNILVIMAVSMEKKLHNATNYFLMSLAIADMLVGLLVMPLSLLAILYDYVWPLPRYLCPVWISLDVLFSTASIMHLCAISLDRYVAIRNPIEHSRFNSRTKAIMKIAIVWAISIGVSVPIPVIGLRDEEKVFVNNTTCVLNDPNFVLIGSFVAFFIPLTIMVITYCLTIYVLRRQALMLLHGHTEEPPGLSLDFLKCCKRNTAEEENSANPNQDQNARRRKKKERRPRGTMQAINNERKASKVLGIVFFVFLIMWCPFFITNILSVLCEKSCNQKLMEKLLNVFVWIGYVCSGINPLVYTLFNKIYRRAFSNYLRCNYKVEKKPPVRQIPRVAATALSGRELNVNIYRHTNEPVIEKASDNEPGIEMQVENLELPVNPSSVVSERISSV

[7] = target: 5-hydroxytryptamine receptor 4 (Cavia porcellus, UniProt O70528); assay: Inhibitory activity against 5-hydroxytryptamine 4 receptor in guinea pig
[8] = Concentration to stimulate the cAMP production in BHK cells; format: functional, cell-based; conditions: Homo sapiens
[9] = target: T1, 5-hydroxytryptamine receptor 6; assay: Intrinsic activity (IA) at the 5-HT6 receptor determined by measuring their cAMP production in BHK cells and compared to the effect elicited by 5-HT; format: functional, cell-based; conditions: Mesocricetus auratus
[10] = target: 5-hydroxytryptamine receptor 3A (Mus musculus) (UniProt P23979); assay: Inhibitory activity against 5-hydroxytryptamine 3 receptor expressed in NG 108 cells
[11] = target: T1, 5-hydroxytryptamine receptor 6; assay: Displacement of [3H]LSD binding to cloned h5-HT6 receptors stably expressed in HEK cells; format: cell-based, HEK293
[12] = target: T1, 5-hydroxytryptamine receptor 6; assay: Displacement of [3H]LSD binding to cloned human 5-hydroxytryptamine 6 receptor stably expressed in HEK cells; format: cell-based, HEK293
[13] = target: T1, 5-hydroxytryptamine receptor 6; assay: Inhibitory activity against 5-hydroxytryptamine 6 receptor in human

Chain of 5-hydroxytryptamine receptor 4 (O70528 whole entry): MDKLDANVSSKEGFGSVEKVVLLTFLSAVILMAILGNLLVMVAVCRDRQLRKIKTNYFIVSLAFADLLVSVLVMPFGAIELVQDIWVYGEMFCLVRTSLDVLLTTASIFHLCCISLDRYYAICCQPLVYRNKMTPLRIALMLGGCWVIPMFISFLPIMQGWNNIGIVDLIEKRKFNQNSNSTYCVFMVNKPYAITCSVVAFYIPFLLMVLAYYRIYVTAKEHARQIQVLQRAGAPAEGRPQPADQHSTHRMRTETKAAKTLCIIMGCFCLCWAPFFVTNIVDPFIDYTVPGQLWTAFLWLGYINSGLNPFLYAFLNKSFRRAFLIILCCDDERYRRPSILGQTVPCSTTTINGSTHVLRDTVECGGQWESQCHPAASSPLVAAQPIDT
Chain of 5-hydroxytryptamine receptor 1B (P28564 whole entry): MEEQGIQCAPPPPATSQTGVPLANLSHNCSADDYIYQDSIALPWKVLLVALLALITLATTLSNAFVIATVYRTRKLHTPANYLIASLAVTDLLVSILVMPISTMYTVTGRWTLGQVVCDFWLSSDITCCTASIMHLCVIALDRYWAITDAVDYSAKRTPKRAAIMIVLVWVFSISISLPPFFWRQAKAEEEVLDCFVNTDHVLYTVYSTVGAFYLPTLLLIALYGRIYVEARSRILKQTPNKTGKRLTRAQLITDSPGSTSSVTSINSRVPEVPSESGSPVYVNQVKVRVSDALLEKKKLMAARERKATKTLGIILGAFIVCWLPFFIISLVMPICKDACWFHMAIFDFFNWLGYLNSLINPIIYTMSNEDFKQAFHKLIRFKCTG
T1 sequence (P50406 whole entry): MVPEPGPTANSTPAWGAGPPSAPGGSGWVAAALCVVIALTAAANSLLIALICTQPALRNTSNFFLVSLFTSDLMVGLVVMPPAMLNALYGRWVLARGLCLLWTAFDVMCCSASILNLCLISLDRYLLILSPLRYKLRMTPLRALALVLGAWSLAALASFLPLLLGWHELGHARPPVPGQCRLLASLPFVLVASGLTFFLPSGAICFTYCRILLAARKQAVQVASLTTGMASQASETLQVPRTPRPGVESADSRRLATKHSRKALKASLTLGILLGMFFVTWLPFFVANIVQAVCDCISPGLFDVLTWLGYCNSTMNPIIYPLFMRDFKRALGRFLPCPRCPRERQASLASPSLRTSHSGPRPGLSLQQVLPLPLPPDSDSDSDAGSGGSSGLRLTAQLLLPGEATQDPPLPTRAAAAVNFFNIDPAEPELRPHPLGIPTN
Chain of 5-hydroxytryptamine receptor 7 (P34969 whole entry): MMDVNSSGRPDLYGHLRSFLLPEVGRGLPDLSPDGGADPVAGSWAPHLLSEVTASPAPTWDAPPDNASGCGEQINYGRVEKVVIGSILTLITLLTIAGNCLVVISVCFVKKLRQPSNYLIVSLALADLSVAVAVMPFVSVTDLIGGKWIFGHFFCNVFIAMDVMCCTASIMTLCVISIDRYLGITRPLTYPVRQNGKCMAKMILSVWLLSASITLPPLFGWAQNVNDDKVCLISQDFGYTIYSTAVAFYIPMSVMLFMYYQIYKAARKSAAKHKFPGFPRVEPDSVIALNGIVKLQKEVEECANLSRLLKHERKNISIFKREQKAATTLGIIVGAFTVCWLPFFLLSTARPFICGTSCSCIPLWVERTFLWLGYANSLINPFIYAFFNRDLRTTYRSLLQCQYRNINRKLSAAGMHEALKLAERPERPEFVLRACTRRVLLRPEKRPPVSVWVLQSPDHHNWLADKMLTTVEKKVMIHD
Chain of 5-hydroxytryptamine receptor 2A (P28223 whole entry): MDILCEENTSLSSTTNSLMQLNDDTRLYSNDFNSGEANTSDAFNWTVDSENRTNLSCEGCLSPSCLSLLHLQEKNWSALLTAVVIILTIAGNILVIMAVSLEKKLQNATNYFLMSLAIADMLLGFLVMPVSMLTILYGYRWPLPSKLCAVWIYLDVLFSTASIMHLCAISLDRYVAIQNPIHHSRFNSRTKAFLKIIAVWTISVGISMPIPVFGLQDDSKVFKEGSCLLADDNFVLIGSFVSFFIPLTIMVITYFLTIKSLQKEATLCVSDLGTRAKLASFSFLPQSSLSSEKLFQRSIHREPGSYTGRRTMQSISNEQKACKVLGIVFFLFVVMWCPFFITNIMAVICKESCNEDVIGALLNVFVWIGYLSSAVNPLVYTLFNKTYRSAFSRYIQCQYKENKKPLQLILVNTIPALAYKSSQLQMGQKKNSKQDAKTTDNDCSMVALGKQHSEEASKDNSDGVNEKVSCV
Chain of 5-hydroxytryptamine receptor 3A (Mus musculus) (P23979 whole entry, looked up): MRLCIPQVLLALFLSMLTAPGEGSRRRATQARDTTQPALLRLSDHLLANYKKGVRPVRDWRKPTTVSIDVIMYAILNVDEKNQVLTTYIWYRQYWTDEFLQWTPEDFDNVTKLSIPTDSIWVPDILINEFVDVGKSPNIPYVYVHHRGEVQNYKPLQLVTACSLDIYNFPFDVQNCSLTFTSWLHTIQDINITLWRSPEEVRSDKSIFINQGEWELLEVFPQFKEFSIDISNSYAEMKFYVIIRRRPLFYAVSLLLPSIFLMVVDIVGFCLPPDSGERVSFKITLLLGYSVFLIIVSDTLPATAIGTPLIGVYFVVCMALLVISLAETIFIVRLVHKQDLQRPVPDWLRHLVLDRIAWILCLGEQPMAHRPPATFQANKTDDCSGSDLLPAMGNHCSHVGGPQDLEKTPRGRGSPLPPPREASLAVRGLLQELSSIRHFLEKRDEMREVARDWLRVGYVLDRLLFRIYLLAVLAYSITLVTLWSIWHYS

| Structure (SMILES) | IC50 [1] [nM] | EC50 [8] [nM] | IA [9] [%] | also measured |
| --- | --- | --- | --- | --- |
| CCc1[nH]c2ccc(Cl)cc2c1C1=CCNCC1 | 30 |  |  |  |
| Cc1[nH]c2ccc(Cl)cc2c1C1=CCNCC1 |  | 1 | 92 | IC50 [2]: 660 nM; IC50 [3]: 180 nM; IC50 [4]: 3000 nM; IC50 [5]: 240 nM; IC50 [6]: 450 nM; IC50 [7]: 620 nM; IC50 [10]: 34 nM |
| CCc1[nH]c2ccc(OC)cc2c1C1=CCNCC1 |  | 7.9 | 100 | IC50 [11]: 90 nM |
| CCc1[nH]c2ccc(OC)cc2c1C1CCNCC1 |  |  |  | IC50 [11]: 300 nM |
| CCc1[nH]c2ccc(Cl)cc2c1C1=CCN(CC)CC1 | 70 |  |  |  |
| CCCN1CC=C(c2c(C)[nH]c3ccc(Cl)cc23)CC1 | 60 |  |  |  |
| CCc1[nH]c2ccc(OC)cc2c1CCN(C)C |  | 710 | 113 | IC50 [12]: 85 nM; IC50 [2]: > 1000 nM; IC50 [3]: > 1000 nM; IC50 [13]: 85 nM; IC50 [4]: 1500 nM; IC50 [5]: 620 nM; IC50 [7]: 44 nM; IC50 [10]: > 1000 nM |
| CCN1CC=C(c2c(C)[nH]c3ccc(Cl)cc23)CC1 | 30 |  |  |  |
| Cc1[nH]c2ccc(Cl)cc2c1C1=CCN(Cc2ccccc2)CC1 | 600 |  |  |  |
| C1=C(c2c(-c3ccccc3)[nH]c3ccccc23)CCNC1 | 2 |  |  |  |
| COc1ccc2[nH]cc(C3=CCNCC3)c2c1 [RU-24969] | 79 | 200 | 55 |  |
| COc1ccc2[nH]c(C)c(C3=CCNCC3)c2c1 | 80 | 5.8 | 100 | IC50 [2]: 430 nM; IC50 [3]: 310 nM; IC50 [13]: 80 nM; IC50 [4]: 9800 nM; IC50 [5]: > 1000 nM; IC50 [6]: > 1000 nM; IC50 [7]: 9800 nM; IC50 [10]: > 1000 nM |
| Cc1[nH]c2ccc(Cl)cc2c1C1=CCN(C)CC1 | 10 | 2.9 | 152 |  |
| CC(C)c1[nH]c2ccc(Cl)cc2c1C1=CCNCC1 | 100 |  |  |  |
| CCCc1[nH]c2ccc(Cl)cc2c1C1=CCNCC1 | 40 |  |  |  |
| Cc1[nH]c2ccc(Cl)cc2c1CCN(C)C | 40 | 16 | 53 |  |
| CCCCN1CC=C(c2c(C)[nH]c3ccc(Cl)cc23)CC1 | 50 |  |  |  |
| Cc1[nH]c2ccc(Cl)cc2c1C1=CC2CCC(C1)N2C (stereo not given) | 40 | 10000 | 75 |  |
